Measurements as given in patent US20260125382A1, “COMPOUNDS FOR INHIBITING OR DEGRADING CDK2 AND/OR CDK9 AND MEDICINAL USE THEREOF” (KOREA RESEARCH INSTITUTE OF CHEMICAL TECHNOLOGY, priority 2022, published 2026).

Key:
[1] = target: T1, CDK9 (Homo sapiens, UniProt P50750); assay: CDK protein degradation activity (Western blotting), CDK9; assay type: cell-based; conditions: MDA-MB-231 cells, 16 hours, Western blot
T1 construct: endogenous in cells; host or cells: MDA-MB-231
Procedure, shortened: (§1)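 Seed MDA-MB-231 cells; next day add compound to 100 nM, 1 μM or 10 μM final, or DMSO. After 16 h, harvest and lyse in Triton X-100 buffer, run SDS-PAGE, probe for CDK2, CDK9 and tubulin.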

[2] = target: T2, CDK2 (Homo sapiens, UniProt P24941); assay: CDK protein degradation activity (Western blotting), CDK2; assay type: cell-based; conditions: MDA-MB-231 cells, 16 hours, Western blot
T2 construct: endogenous in cells; host or cells: MDA-MB-231
Procedure, shortened: as §1

T1 sequence (P50750 whole entry): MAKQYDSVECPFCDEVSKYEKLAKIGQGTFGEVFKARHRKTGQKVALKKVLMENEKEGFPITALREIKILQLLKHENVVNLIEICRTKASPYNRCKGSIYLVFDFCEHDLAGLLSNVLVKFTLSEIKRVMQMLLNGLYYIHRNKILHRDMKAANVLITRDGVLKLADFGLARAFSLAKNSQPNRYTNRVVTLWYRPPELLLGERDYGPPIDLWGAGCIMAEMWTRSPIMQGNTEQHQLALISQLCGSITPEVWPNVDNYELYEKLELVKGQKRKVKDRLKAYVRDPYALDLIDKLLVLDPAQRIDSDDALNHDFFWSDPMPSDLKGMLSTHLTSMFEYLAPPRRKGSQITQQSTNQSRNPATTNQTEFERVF

Enzyme degradation CDK9 (% remaining) @ 0.1 μM [1]	Enzyme degradation CDK9 (% remaining) @ 1 μM [1]	Enzyme degradation CDK9 (% remaining) @ 10 μM [1]	Enzyme degradation CDK2 (% remaining) @ 0.1 μM [2]	Enzyme degradation CDK2 (% remaining) @ 1 μM [2]	Enzyme degradation CDK2 (% remaining) @ 10 μM [2]	Compound
20/20/20%	20/20/20%	20/20/20%	70/70/70%	70/70/70%	70/70/70%	Cc1cccc(C(=O)N[C@H]2C[C@@H](n3cnc4c(Nc5ccc(N6CCN(CC7CCN(C(=O)C8CN(c9ccc%10c(c9)C(=O)N([C@H]9CCC(=O)NC9=O)C%10=O)C8)CC7)CC6)cc5C)ncnc43)C2)n1 [Compound 448, N-((1s,3s)-3-(6-((4-(4-((1-(1-(2-(2,6-dioxopiperidin-3-yl)-1,3-dioxoisoindolin-5-yl)azetidin-3-carbonyl)piperidin-4-yl)methyl)piperazin-1-yl)-2-methylphenyl)amino)-9H-purin-9-yl)cyclobutyl)-6-methylpicolinamide]
10/10/10%	10/10/10%	10/10/10%	50%	40%	40%	Cc1cccc(C(=O)NC2CC(n3cnc4c(Nc5ccc(N6CCN(CCC7CCN(C(=O)C8CCN(c9cc%10c(cc9F)C(=O)N([C@H]9CCC(=O)NC9=O)C%10=O)CC8)CC7)CC6)cc5)ncnc43)C2)n1 (stereo partly drawn) [Compound 449, N-((1s,3s)-3-(6-((4-(4-(2-(1-(1-(2-(2,6-dioxopiperidin-3-yl)-6-fluoro-1,3-dioxoisoindolin-5-yl)piperidin-4-carbonyl)piperidin-4-yl)ethyl)piperazin-1-yl)phenyl)amino)-9H-purin-9-yl)cyclobutyl)-6-methylpicolinamide]
0/0/0%	0/0/0%	0/0/0%	50/50/50%	50/50/50%	50/50/50%	Cc1cccc(C(=O)N[C@H]2C[C@@H](n3cnc4c(NCCC5CCN(CC6CCN(C(=O)C7CCN(c8cc9c(cc8F)C(=O)N(C8CCC(=O)NC8=O)C9=O)CC7)CC6)CC5)ncnc43)C2)n1 (stereo partly drawn) [Compound 450, N-((1s,3s)-3-(6-((2-(1-((1-(1-(2-(2,6-dioxopiperidin-3-yl)-6-fluoro-1,3-dioxoisoindolin-5-yl)piperidin-4-carbonyl)piperidin-4-yl)methyl)piperidin-4-yl)ethyl)amino)-9H-purin-9-yl)cyclobutyl)-6-methylpicolinamide]
0/0/0%	0/0/0%	0/0/0%	50%	30%	30%	O=C1CC[C@H](N2C(=O)c3ccc(N4CC(C(=O)N5CCC(CN6CCN(c7ccc(Nc8ncnc9c8ncn9C8CC(NC(=O)c9cccc(Cl)n9)C8)cc7)CC6)CC5)C4)cc3C2=O)C(=O)N1 (stereo partly drawn) [Compound 451, 6-chloro-N-((1s,3s)-3-(6-((4-(4-((1-(1-(2-(2,6-dioxopiperidin-3-yl)-1,3-dioxoisoindolin-5-yl)azetidin-3-carbonyl)piperidin-4-yl)methyl)piperazin-1-yl)phenyl)amino)-9H-purin-9-yl)cyclobutyl)picolinamide]
0/0/0%	0/0/0%	0/0/0%	30/30/30%	30/30/30%	30/30/30%	O=C1CCC(N2C(=O)c3ccc(N4CCC(C(=O)N5CCC(CN6CCN(c7ccc(Nc8ncnc9c8ncn9[C@H]8C[C@@H](NC(=O)c9cccc(Cl)n9)C8)cc7)CC6)CC5)CC4)cc3C2=O)C(=O)N1 (stereo partly drawn) [Compound 452, 6-chloro-N-((1s,3s)-3-(6-((4-(4-((1-(1-(2-(2,6-dioxopiperidin-3-yl)-1,3-dioxoisoindolin-5-yl)piperidin-4-carbonyl)piperidin-4-yl)methyl)piperazin-1-yl)phenyl)amino)-9H-purin-9-yl)cyclobutyl)picolinamide]
0/0/0%	0/0/0%	0/0/0%	20%	20%	30%	O=C1CC[C@H](N2C(=O)c3cc(F)c(N4CCC(C(=O)N5CCC(CN6CCN(c7ccc(Nc8ncnc9c8ncn9C8CC(NC(=O)c9cccc(Cl)n9)C8)cc7)CC6)CC5)CC4)cc3C2=O)C(=O)N1 (stereo partly drawn) [Compound 453, 6-chloro-N-((1s,3s)-3-(6-((4-(4-((1-(1-(2-(2,6-dioxopiperidin-3-yl)-6-fluoro-1,3-dioxoisoindolin-5-yl)piperidin-4-carbonyl)piperidin-4-yl)methyl)piperazin-1-yl)phenyl)amino)-9H-purin-9-yl)cyclobutyl)picolinamide]
0/0/0%	0/0/0%	0/0/0%	30%	20%	10%	N#Cc1cccc(C(=O)NC2CC(n3cnc4c(Nc5ccc(N6CCN(CC7CCN(C(=O)C8CN(c9ccc%10c(c9)C(=O)N([C@H]9CCC(=O)NC9=O)C%10=O)C8)CC7)CC6)cc5)ncnc43)C2)n1 (stereo partly drawn) [Compound 454, 6-cyano-N-((1s,3s)-3-(6-((4-(4-((1-(1-(2-(2,6-dioxopiperidin-3-yl)-1,3-dioxoisoindolin-5-yl)azetidin-3-carbonyl)piperidin-4-yl)methyl)piperazin-1-yl)phenyl)amino)-9H-purin-9-yl)cyclobutyl)picolinamide]
0/0/0%	0/0/0%	0/0/0%	30%	20%	20%	N#Cc1cccc(C(=O)N[C@H]2C[C@@H](n3cnc4c(Nc5ccc(N6CCN(CC7CCN(C(=O)C8CCN(c9ccc%10c(c9)C(=O)N(C9CCC(=O)NC9=O)C%10=O)CC8)CC7)CC6)cc5)ncnc43)C2)n1 (stereo partly drawn) [Compound 455, 6-cyano-N-((1s,3s)-3-(6-((4-(4-((1-(1-(2-(2,6-dioxopiperidin-3-yl)-1,3-dioxoisoindolin-5-yl)piperidin-4-carbonyl)piperidin-4-yl)methyl)piperazin-1-yl)phenyl)amino)-9H-purin-9-yl)cyclobutyl)picolinamide]
0%	0%	10%	50%	60%	70%	O=C1CC[C@H](N2C(=O)c3cc(F)c(N4CCC(C(=O)N5CCC(CN6CCN(c7ccc(Nc8ncnc9c8ncn9C8CC(NC(=O)Cc9ccccc9)C8)cc7)CC6)CC5)CC4)cc3C2=O)C(=O)N1 (stereo partly drawn) [Compound 456, N-((1s,3s)-3-(6-((4-(4-((1-(1-(2-(2,6-dioxopiperidin-3-yl)-6-fluoro-1,3-dioxoisoindolin-5-yl)piperidin-4-carbonyl)piperidin-4-yl)methyl)piperazin-1-yl)phenyl)amino)-9H-purin-9-yl)cyclobutyl)-2-phenylacetamide]
20%	0%	0%	80%	60%	60%	O=C1CC[C@H](N2C(=O)c3cc(F)c(N4CCC(C(=O)N5CCC(CCN6CCN(c7ccc(Nc8ncnc9c8ncn9[C@H]8C[C@@H](NC(=O)Cc9ccccc9)C8)cc7)CC6)CC5)CC4)cc3C2=O)C(=O)N1 [Compound 457, N-((1s,3s)-3-(6-((4-(4-(2-(1-(1-(2-(2,6-dioxopiperidin-3-yl)-6-fluoro-1,3-dioxoisoindolin-5-yl)piperidin-4-carbonyl)piperidin-4-yl)ethyl)piperazin-1-yl)phenyl)amino)-9H-purin-9-yl)cyclobutyl)-2-phenylacetamide]
10%	10%	20%	50/50/50%	50/50/50%	50/50/50%	O=C1CC[C@H](N2C(=O)c3cc(F)c(N4CCC(CCCN5CCN(c6ccc(Nc7ncnc8c7ncn8[C@H]7C[C@@H](NC(=O)Cc8ccccc8)C7)cc6)CC5)CC4)cc3C2=O)C(=O)N1 [Compound 458, N-((1s,3s)-3-(6-((4-(4-(3-(1-(2-(2,6-dioxopiperidin-3-yl)-6-fluoro-1,3-dioxoisoindolin-5-yl)piperidin-4-yl)propyl)piperazin-1-yl)phenyl)amino)-9H-purin-9-yl)cyclobutyl)-2-phenylacetamide]
0/0/0%	0/0/0%	0/0/0%	50%	30%	30%	O=C1CC[C@H](N2C(=O)c3cc(F)c(N4CCC(C(=O)N5CCC(CCCN6CCN(c7ccc(Nc8ncnc9c8ncn9[C@H]8C[C@@H](NC(=O)Cc9ccccc9)C8)cc7)CC6)CC5)CC4)cc3C2=O)C(=O)N1 [Compound 459, N-((1s,3s)-3-(6-((4-(4-(3-(1-(1-(2-(2,6-dioxopiperidin-3-yl)-6-fluoro-1,3-dioxoisoindolin-5-yl)piperidin-4-carbonyl)piperidin-4-yl)propyl)piperazin-1-yl)phenyl)amino)-9H-purin-9-yl)cyclobutyl)-2-phenylacetamide]
